Laboratory results reported in patent US20240374573A1, “IMIDAZOLE CONTAINING COMPOUNDS, DERIVATIVES THEREFORE, AND USES THEREOF” (AglaeaPharma Inc., priority 2023, published 2024).

How the values were obtained:
[1] = target: P-glycoprotein (P-gp, MDR1) (Homo sapiens, UniProt P08183); test: in vitro; conditions: dog, MDCK-MDR1, pH 7.4
Method: MDR1-MDCK II cells (obtained from Piet Borst at the Netherlands Cancer Institute) were seeded onto Polycarbonate membranes (PC) in 96-well insert systems at 3.33×10^5 cells/mL until to 4-7 days for confluent cell monolayer formation.
Selected α2AR agonist from table 3s were diluted with the transport buffer (HBSS with 10.0 mM Hepes, pH7.4) from DMSO stock solution to a concentration of 2 μM (DMSO<1%) and applied to the apical or basolateral side of the cell monolayer. […] Permeation of the test compounds from A to B direction and/or B to A direction was determined in duplicate. Digoxin was tested at 10.0 μM from A to B direction and B to A direction in duplicate. The plate was incubated for 2.5 hours in CO2 incubator at 37.0±1.0° C., with 5.0% CO2 at saturated humidity without shaking. In addition, the efflux ratio of each compound was also determined. Test and reference compounds were quantified by LC/MS/MS analysis based on the peak area ratio of analyte/IS.
After transport assay, lucifer yellow rejection assay was applied to determine the cell monolayer integrity. Buffers were removed from both apical and basolateral chambers, followed by the addition of 75 μL of 100 μM lucifer yellow in transport buffer and 250 μL transport buffer in apical and basolateral chambers, respectively. The plate was incubated for 30 minutes at 37.0° C. with 5.0% CO2 and 95.0% relative humidity without shaking. After 30 minutes incubation, 20 μL of lucifer yellow samples were taken from the apical sides, followed by the addition of 60 μL of transport Buffer. And then 80 μL of lucifer yellow samples were taken from the basolateral sides. The relative fluorescence unit (RFU) of lucifer yellow was measured at 425/528 nm (excitation/emission) with an Envision plate reader.
The apparent permeability coefficient Papp (cm/s) was calculated using the equation: […]
wherein dCr/dt is the cumulative concentration of compound in the receiver chamber as a function of time (μM/s); Vr is the solution volume in the receiver chamber (0.075 mL on the apical side, 0.25 mL on the basolateral side); A is the surface area for the transport, i.e. 0.143 cm2 for the area of the monolayer; and C0 is the initial concentration in the donor chamber (μM).
The efflux ratio was calculated using the equation: […]

[2] = target: T1, α2AAR (Homo sapiens, UniProt P08913); test: α2AAR binding assay ([3H]-RX 821002 radioligand); conditions: [3H]-RX 821002 0.5 nM, HEK293 membranes; read-out: α2A affinity (Ki)
T1 construct: host or cells: HEK293 (membranes)
T1 sequence (P08913 1-465): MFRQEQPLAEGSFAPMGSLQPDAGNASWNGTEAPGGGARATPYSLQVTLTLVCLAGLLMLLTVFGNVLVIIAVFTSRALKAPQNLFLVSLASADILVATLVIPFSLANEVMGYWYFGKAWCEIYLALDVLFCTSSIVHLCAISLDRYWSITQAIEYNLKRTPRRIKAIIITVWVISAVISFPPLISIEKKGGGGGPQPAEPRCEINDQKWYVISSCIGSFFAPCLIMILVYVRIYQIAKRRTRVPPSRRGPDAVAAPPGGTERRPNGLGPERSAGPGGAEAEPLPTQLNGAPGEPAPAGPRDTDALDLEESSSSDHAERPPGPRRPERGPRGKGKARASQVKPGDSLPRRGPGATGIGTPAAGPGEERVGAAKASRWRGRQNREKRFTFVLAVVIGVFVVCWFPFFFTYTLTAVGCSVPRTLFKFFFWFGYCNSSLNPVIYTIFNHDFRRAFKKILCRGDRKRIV

[3] = target: T2, α2AAR (α2A-adrenergic receptor) (Homo sapiens, UniProt P08913); test: α2AAR FLIPR assay (agonist activity); assay type: cell-based; conditions: FLIPR, α2AAR cell line hosted in HEK293 cells; read-out: α2A agonist activity (EC50)
T2 construct: expressed in transfected cells; host or cells: HEK293
T2 sequence (P08913 1-465): T1 sequence (P08913 1-465)
In short: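 HEK293 cells expressing α2AAR loaded with Fluo-4 Direct plus probenecid for 50 min at 37° C and 10 min at room temperature, then treated with serially diluted compounds.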

Sequence of P-glycoprotein (P-gp, MDR1) (P08183 whole entry): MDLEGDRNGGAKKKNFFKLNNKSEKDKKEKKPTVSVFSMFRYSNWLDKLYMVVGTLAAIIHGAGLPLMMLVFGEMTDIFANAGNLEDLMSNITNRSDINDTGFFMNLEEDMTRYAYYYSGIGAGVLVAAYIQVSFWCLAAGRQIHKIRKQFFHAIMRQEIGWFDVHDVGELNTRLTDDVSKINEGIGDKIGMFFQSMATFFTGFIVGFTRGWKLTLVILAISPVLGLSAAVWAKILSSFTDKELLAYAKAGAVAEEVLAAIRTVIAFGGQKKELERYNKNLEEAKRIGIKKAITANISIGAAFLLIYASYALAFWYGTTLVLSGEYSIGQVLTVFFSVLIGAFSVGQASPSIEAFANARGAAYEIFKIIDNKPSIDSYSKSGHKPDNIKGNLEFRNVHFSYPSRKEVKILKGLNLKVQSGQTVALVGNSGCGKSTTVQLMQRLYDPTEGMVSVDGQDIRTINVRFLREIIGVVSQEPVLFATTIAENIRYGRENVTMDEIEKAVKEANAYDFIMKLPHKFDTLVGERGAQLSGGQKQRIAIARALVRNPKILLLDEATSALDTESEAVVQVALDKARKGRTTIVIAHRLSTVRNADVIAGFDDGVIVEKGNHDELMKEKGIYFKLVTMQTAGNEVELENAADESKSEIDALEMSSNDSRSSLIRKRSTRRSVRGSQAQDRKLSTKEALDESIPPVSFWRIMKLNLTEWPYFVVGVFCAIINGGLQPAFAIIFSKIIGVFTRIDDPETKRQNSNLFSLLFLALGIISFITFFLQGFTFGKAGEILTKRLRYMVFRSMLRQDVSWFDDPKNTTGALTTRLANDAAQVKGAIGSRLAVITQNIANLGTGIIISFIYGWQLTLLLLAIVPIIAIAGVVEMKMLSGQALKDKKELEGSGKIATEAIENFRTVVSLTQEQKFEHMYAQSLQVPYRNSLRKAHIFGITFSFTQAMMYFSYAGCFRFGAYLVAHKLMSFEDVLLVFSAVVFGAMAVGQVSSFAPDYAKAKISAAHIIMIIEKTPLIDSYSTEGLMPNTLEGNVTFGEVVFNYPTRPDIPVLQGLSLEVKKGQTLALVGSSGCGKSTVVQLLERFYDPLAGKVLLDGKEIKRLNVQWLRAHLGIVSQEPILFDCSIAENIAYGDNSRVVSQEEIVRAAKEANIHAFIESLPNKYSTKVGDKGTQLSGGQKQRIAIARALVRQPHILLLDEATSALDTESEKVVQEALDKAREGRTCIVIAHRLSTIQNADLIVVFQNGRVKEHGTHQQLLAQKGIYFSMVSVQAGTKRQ

Compound	efflux ratio at 2.5 h, 2 μM [1]	Ki [2] [µM]	EC50 [3] [µM]
Cc1c(CF)cccc1C(c1cccc(NS(C)(=O)=O)c1)c1c[nH]cn1 (racemic) [compound 118]	25.3	0.01 to 0.05	0.01 to 0.05
CONC(=O)c1cccc(C(c2c[nH]cn2)c2cccc(C)c2C)c1 (single isomer, unassigned) [1-B]	51	0.05 to 0.25	0.01 to 0.05
Cc1cccc(C(c2cccc(C(N)=O)c2)c2c[nH]cn2)c1C (single isomer, unassigned) [5-B]	33.2	0.01 to 0.05	0.01 to 0.05
Cc1cccc(C(c2c[nH]cn2)c2cccc(C(N)=O)c2F)c1C (single isomer, unassigned) [45-B]	14	< 0.01	0.01 to 0.05
Cc1cccc(C(c2cccc(C(=O)NC3CCOCC3)c2)c2c[nH]cn2)c1C (single isomer, unassigned) [121-B]	30.9	< 0.01	< 0.01
Cc1cccc(C(c2c[nH]cn2)c2cccc(C(=O)NCC3CCOCC3)c2F)c1C (single isomer, unassigned) [124-B]	10.3	< 0.01	0.01 to 0.05
Cc1cccc(C(Cc2ccc(C(N)=O)c(F)c2)c2c[nH]cn2)c1C (single isomer, unassigned) [156-B]	2.86	< 0.01	< 0.01
Brc1c(NC2=NCCN2)ccc2nccnc12 [Brimonidine, brimonidine, reference compound]	0.83		
C[C@H]1O[C@@H](O[C@H]2[C@@H](O)C[C@H](O[C@H]3[C@@H](O)C[C@H](O[C@H]4CC[C@@]5(C)[C@H](CC[C@@H]6[C@@H]5C[C@@H](O)[C@]5(C)[C@@H](C7=CC(=O)OC7)CC[C@]65O)C4)O[C@@H]3C)O[C@@H]2C)C[C@H](O)[C@@H]1O [Digoxin, reference compound]	13.7		
Cc1cccc(C(c2c[nH]cn2)c2cccc(OCCNS(C)(=O)=O)c2F)c1C (centres unmarked) [compound 55]	26.4	0.01 to 0.05	0.01 to 0.05
Cc1cccc(C(c2c[nH]cn2)c2cccc(C(N)=O)n2)c1C (centres unmarked) [compound 56]	11.5	0.01 to 0.05	0.01 to 0.05
Cc1cccc(C(c2cccc(NC(=O)OC3CCOC3)c2)c2c[nH]cn2)c1C (centres unmarked) [compound 64]	24.3	0.01 to 0.05	0.01 to 0.05
CCS(=O)(=O)Nc1cccc(C(c2c[nH]cn2)c2cccc(C)c2C)c1 (centres unmarked) [compound 67]	29	0.01 to 0.05	0.01 to 0.05
CONC(=O)Nc1cccc(C(c2c[nH]cn2)c2cccc(C)c2C)c1 (centres unmarked) [compound 72]	32.9	0.01 to 0.05	0.01 to 0.05
Cc1cccc(C(c2cccc(NC(=O)CC3CCOC3)c2)c2c[nH]cn2)c1C (centres unmarked) [compound 73]	96.1	0.01 to 0.05	0.01 to 0.05
Cc1cccc(C(c2cccc(NS(=O)(=O)CCC#N)c2)c2c[nH]cn2)c1C (centres unmarked) [compound 74]	93.5	0.01 to 0.05	0.05 to 0.25
Cc1cccc(C(c2cccc(NC(=O)CC3CCOCC3)c2)c2c[nH]cn2)c1C (centres unmarked) [compound 80]	112	< 0.01	0.01 to 0.05
Cc1cccc(C(c2cccc(NC(=O)CN3CCOCC3)c2)c2c[nH]cn2)c1C (centres unmarked) [compound 81]	62.5	< 0.01	0.01 to 0.05
Cc1cccc(C(c2cccc(C(=O)NOCC3CCOC3)c2)c2c[nH]cn2)c1C (centres unmarked) [compound 95]	102	< 0.01	0.01 to 0.05
Cc1cccc(C(c2cccc(C(=O)NCC3CCOCC3)c2)c2c[nH]cn2)c1C (centres unmarked) [compound 98]	82.6		
Cc1cccc(C(c2cccc(C(=O)NCC3CCC(O)CC3)c2)c2c[nH]cn2)c1C (centres unmarked) [compound 99]	141	0.01 to 0.05	0.01 to 0.05

Compound	efflux ratio at 2.5 h, 2 μM [1]	Ki [2] [µM]	EC50 [3] [µM]
Cc1cccc(C(c2cccc(NC(=O)CCC3CCOCC3)c2)c2c[nH]cn2)c1C (centres unmarked) [compound 101]	104	0.01 to 0.05	0.01 to 0.05
Cc1cccc(C(c2cccc(NC(=O)Cc3ccncc3)c2)c2c[nH]cn2)c1C (centres unmarked) [compound 103]	149	0.01 to 0.05	0.01 to 0.05
Cc1cccc(C(c2cccc(S(=O)(=O)NCC3CCOCC3)c2)c2c[nH]cn2)c1C (centres unmarked) [compound 105]	65.8	< 0.01	0.01 to 0.05
Cc1cccc(C(Cc2cccc(NC(=O)CC3CCOCC3)c2)c2c[nH]cn2)c1C (centres unmarked) [compound 108]	72.2	< 0.01	0.01 to 0.05
Cc1cccc(C(c2cccc(NC(=O)NC3CC3)c2)c2c[nH]cn2)c1C (centres unmarked) [compound 109]	94.8	0.01 to 0.05	0.01 to 0.05
Cc1cccc(C(Cc2ccc(-c3nnn(C)n3)cc2)c2c[nH]cn2)c1C (centres unmarked) [compound 241]		0.01 to 0.05	0.01 to 0.05
Cc1cccc(C(Cc2ccc(NC(=O)C3CCOCC3)nc2)c2c[nH]cn2)c1C (centres unmarked) [compound 242]		0.05 to 0.25	0.01 to 0.05
Cc1cccc(C(Cc2ccc(N3CCN(C)C3=O)cc2)c2c[nH]cn2)c1C (centres unmarked) [compound 243]		< 0.01	< 0.01
Cc1ccccc1C(Cc1ccc(C(N)=O)cc1)c1c[nH]cn1 (centres unmarked) [compound 244]		0.05 to 0.25	0.05 to 0.25
Cc1cccc(C(Cc2ccc(NC(=O)N(C)C3CCOC3)cc2)c2c[nH]cn2)c1C (centres unmarked) [compound 245]		< 0.01	< 0.01
Cc1cccc(C(Cc2ccc3c(c2)NCCN3)c2c[nH]cn2)c1C (centres unmarked) [compound 246]		0.01 to 0.05	0.01 to 0.05
CC(=O)Nc1ccc(CC(c2c[nH]cn2)c2cccc(C)c2C)c(F)c1 (centres unmarked) [compound 247]		< 0.01	0.01 to 0.05
CC(=O)Nc1ccc(CC(c2c[nH]cn2)c2cccc(C)c2C)cn1 (centres unmarked) [compound 248]		0.05 to 0.25	0.01 to 0.05
Cc1cccc(C(Cc2ccc(C(C)(C)C(=O)O)cc2)c2c[nH]cn2)c1C (centres unmarked) [compound 251]		0.05 to 0.25	0.01 to 0.05
CONC(=O)c1cccc(CC(NC2=NCCO2)c2ccccc2OC)c1 (centres unmarked) [compound 503, 3-[2-(4,5-dihydro-1,3-oxazol-2-ylamino)-2-(2-methoxyphenyl)ethyl]-N-methoxybenzamide]		< 0.01	0.05 to 0.25
COc1ccccc1C(Cc1cccc(NS(C)(=O)=O)c1)N=C1NCCN1 (centres unmarked) [compound 505, N-{3-[2-(imidazolidin-2-ylideneamino)-2-(2-methoxyphenyl)ethyl]phenyl}methanesulfonamide]		< 0.01	0.05 to 0.25
CONC(=O)c1cccc(CC(NC2=NCCS2)c2cccc(Cl)c2)c1 (centres unmarked) [compound 506]		< 0.01	0.05 to 0.25
COc1ccccc1C(Cc1cccc(NS(C)(=O)=O)c1)NC1=NCCO1 (centres unmarked) [compound 509]		< 0.01	0.05 to 0.25
COc1ccccc1C(Cc1cccc(NS(=O)(=O)CC2CCOCC2)c1)NC1=NCCS1 (centres unmarked) [compound 515]		< 0.01	0.05 to 0.25
CS(=O)(=O)Nc1cccc(CC(Oc2c(Cl)cccc2Cl)C2=NCCN2)c1 (centres unmarked) [compound 516]		0.05 to 0.25	0.05 to 0.25
CNS(=O)(=O)c1ccc(CC(Oc2c(Cl)cccc2Cl)C2=NCCN2)cc1 (centres unmarked) [compound 519]		0.01 to 0.05	0.05 to 0.25
